Test results: paper PMC8659243, “Design, Synthesis and Tumour-Selective Toxicity of Novel 1-[3-{3,5-Bis(benzylidene)-4-oxo-1-piperidino}-3-oxopropyl]-4-piperidone Oximes and Related Quaternary Ammonium Salts” (Molecules, 2021)
Where a name gives a salt, the structure may show the parent alone.

Assays:
Ca9-22 cells = assay: Cytotoxicity against Ca9-22 cells, MTT method, 48 h; format: cell-based, human; details: for CC50: Homo sapiens, Ca9-22, concentration required to kill 50% of the cells, 48 h, MTT, read-out: CC50 Ca9-22; for SI Ca9-22: average CC50 towards HGF, HPLF, HPC divided by CC50 against Ca9-22
Method: (§1) A literature procedure was followed when the compounds in series 3 and 4 were evaluated against three human oral squamous cell carcinoma cell lines Ca9-22 (RCB-1976), HSC-2 (RCB1945), HSC-4 (RCB1902) (purchased from RIKEN Cell Bank, Tukuba, Japan) and three human normal oral cells, gingival fibroblast (HGF), periodontal ligament fibroblast (HPLF) and pulp cells (HPC) (established according to the guideline of the intramural ethic committee, A0808) except the duration of incubation was increased from 24 h to 48 h. In brief, various concentrations of the compounds were added to the DMEM media, which was supplemented by 10% heat-inactivated fetal bovine serum. Incubation was undertaken at 37 °C. At the completion of the experiment, cell viability was determined by the MTT method.

HSC-2 cells = assay: Cytotoxicity against HSC-2 cells, MTT method, 48 h; format: cell-based, human; details: for CC50: Homo sapiens, HSC-2, concentration required to kill 50% of the cells, 48 h, MTT; for SI HSC-2: average CC50 towards HGF, HPLF, HPC divided by CC50 against HSC-2
Method: as §1

HSC-4 cells = assay: Cytotoxicity against HSC-4 cells, MTT method, 48 h; format: cell-based, human; details: for CC50: Homo sapiens, HSC-4, concentration required to kill 50% of the cells, 48 h, MTT, read-out: CC50 HSC-4; for SI HSC-4: average CC50 towards HGF, HPLF, HPC divided by CC50 against HSC-4
Method: as §1

[1] = tested on: Ca9-22, HSC-2 and HSC-4 cells; assay: Average over Ca9-22, HSC-2 and HSC-4 neoplastic cells; format: cell-based, human; details: for CC50: Homo sapiens, average of Ca9-22, HSC-2 and HSC-4, read-out: Average CC50; for Average SI: average of SI for Ca9-22, HSC-2 and HSC-4
Method: In order to assess whether the compounds in series 3 and 4 are more toxic to neoplasms than non-malignant cells, selective index (SI) figures were calculated. In the in vivo situation, a tumour is surrounded by a number of non-malignant cells.
In order to identify the most promising lead compounds in terms of both cytotoxic potencies and favourable SI values, potency–selectivity expression (PSE) values were computed. […] Outstanding results may be noted for four compounds that have PSE values in excess of 100,000 namely 3d, 4c–e. […] However, the relative SI/PSE distribution patterns between series 3 and 4 (from a to h) are nearly superimposable with each other (Figure 3). […] It has been reported that 3,5-bis(3-iodo-5-methoxy-4-propoxybenzylidene)-N-acetylpiperidin-4-one inhibited tubulin and destabilization of microtubules, while 3,5-bis(3,4,5-trimethoxybenzylidene)-N-benzoylpiperidin-4-one destabilizes the microtubules. Thus, it remained to investigate whether compound 4d acts as an inhibitor of the microtubule.
as §1

[2] = Cytotoxicity against non-malignant HGF cells, MTT method, 48 h; format: cell-based; details: human, gingival fibroblasts (HGF)
Method: as §1

[3] = Cytotoxicity against non-malignant HPLF cells, MTT method, 48 h; format: cell-based; details: human, periodontal ligament fibroblasts (HPLF)
Method: as §1

[4] = Cytotoxicity against non-malignant HPC cells, MTT method, 48 h; format: cell-based; details: human, pulp cells (HPC)
Method: as §1

[5] = Average over HGF, HPLF and HPC non-malignant cells; format: cell-based; details: human, HPLF and HPC non-malignant cells (average of the three)
Method: as §1

[6] = tested on: CEM T-lymphoblastic leukemia cells; assay: Cytotoxicity against CEM cells, MTT method, 24 h; format: cell-based; details: Homo sapiens, CCRF-CEM, concentration required to inhibit cell growth by 50%
Method: The method used for the evaluation of various compounds against human CEM cells has been reported previously. In brief, cells were grown in RPMI-1640 medium supplemented with 10% heat-inactivated fetal bovine serum. Different concentrations of compounds were added to the media, and after 24 h incubation, cytotoxicity was measured by the MTT method.

HL-60 (TB) cells = assay: NCI in vitro screen, leukemia HL-60 (TB); format: cell-based; details: Homo sapiens
Text: (§2) In view of the encouraging result with CEM leukemic cells, consideration was given to an assessment in the NCI in vitro screening program. The oximes, but not the quaternary ammonium salts, were accepted for bioevaluation. Examination of the mean graphs confirms the sensitivity of leukemic cells to these compounds.

K-562 cells = assay: NCI in vitro screen, leukemia K-562; format: cell-based; details: Homo sapiens, K562
Text: as §2

Molt-4 cells = assay: NCI in vitro screen, leukemia Molt-4; format: cell-based; details: Homo sapiens
Text: as §2

RPMI-8226 cells = assay: NCI in vitro screen, leukemia RPMI-8226; format: cell-based; details: Homo sapiens
Text: as §2

SR cells = assay: NCI in vitro screen, leukemia SR; format: cell-based; details: Homo sapiens
Text: as §2

leukemia cells = assay: NCI in vitro screen, average of leukemia cells; format: cell-based; details: Homo sapiens
Text: as §2

All Cell Lines = assay: NCI in vitro screen, all cell lines; format: cell-based; details: Homo sapiens
Text: (§3) One particular reference drug is 5-fluorouracil, which is used in treating colon cancers.

Colo205 cells = assay: NCI in vitro screen, colon cancer Colo205; format: cell-based; details: Homo sapiens, COLO 205
Text: as §3

HCC-2998 cells = assay: NCI in vitro screen, colon cancer HCC-2998; format: cell-based; details: Homo sapiens
Text: as §3

HCT-116 cells = assay: NCI in vitro screen, colon cancer HCT-116; format: cell-based; details: Homo sapiens
Text: as §3

HCT-15 cells = assay: NCI in vitro screen, colon cancer HCT-15; format: cell-based; details: Homo sapiens
Text: as §3

HT29 cells = assay: NCI in vitro screen, colon cancer HT29; format: cell-based; details: Homo sapiens, HT-29
Text: as §3

KM12 cells = assay: NCI in vitro screen, colon cancer KM12; format: cell-based; details: Homo sapiens
Text: as §3

SW-620 cells = assay: NCI in vitro screen, colon cancer SW-620; format: cell-based; details: Homo sapiens
Text: as §3

colon cancer cells = assay: NCI in vitro screen, average of colon cancer cells; format: cell-based; details: Homo sapiens
Text: as §3

SMILES | CC50 (Ca9-22 cells) | SI Ca9-22 (Ca9-22 cells) | CC50 (HSC-2 cells) | SI HSC-2 (HSC-2 cells) | CC50 (HSC-4 cells) | SI HSC-4 (HSC-4 cells) | CC50 [1] | Average SI [1] | CC50 at 48 h [2] | CC50 at 48 h [3] | CC50 at 48 h [4] | CC50 at 48 h [5] | IC50 [6] | further results
O=C1/C(=C/c2ccc(F)cc2)CN(C(=O)CCN2CCC(=NO)CC2)C/C1=C\c1ccc(F)cc1 [Compound 3b, (3~{E},5~{E})-3,5-bis[(4-fluorophenyl)methylene]-1-[3-(4-hydroximino-1-piperidyl)propanoyl]piperidin-4-one hydrochloride] | 370 ± 190 nM | 28.1 | 730 ± 130 nM | 14.3 | 200 ± 80 nM | 52.0 | 430 nM | 31.5 | 7120 ± 40 nM | 9730 ± 230 nM | 14200 ± 2000 nM | 10400 nM | 1780 ± 210 nM | IC50 (HL-60 (TB) cells): 1550 nM; IC50 (K-562 cells): 350 nM; IC50 (Molt-4 cells): 330 nM; IC50 (RPMI-8226 cells): 290 nM; IC50 (SR cells): 250 nM; IC50 (leukemia cells): 520 nM; IC50 (All Cell Lines): 1150 nM; IC50 (Colo205 cells): 1500 nM; IC50 (HCC-2998 cells): 1410 nM; IC50 (HCT-116 cells): 220 nM; IC50 (HCT-15 cells): 370 nM; IC50 (HT29 cells): 320 nM; IC50 (KM12 cells): 230 nM; IC50 (SW-620 cells): 200 nM; IC50 (colon cancer cells): 610 nM
O=C1/C(=C/c2ccc(Cl)cc2)CN(C(=O)CCN2CCC(=NO)CC2)C/C1=C\c1ccc(Cl)cc1 [Compound 3c, (3~{E},5~{E})-3,5-bis[(4-chlorophenyl)methylene]-1-[3-(4-hydroximino-1-piperidyl)propanoyl]piperidin-4-one hydrochloride] | 120 ± 80 nM | 113 | 660 ± 140 nM | 20.5 | 180 ± 30 nM | 75.0 | 320 nM | 69.5 | 6400 ± 350 nM | 8030 ± 60 nM | 26100 ± 35900 nM | 13500 nM | 15900 ± 940 nM | IC50 (HL-60 (TB) cells): 560 nM; IC50 (K-562 cells): 160 nM; IC50 (Molt-4 cells): 280 nM; IC50 (RPMI-8226 cells): 160 nM; IC50 (SR cells): 40 nM; IC50 (leukemia cells): 240 nM; IC50 (All Cell Lines): 1620 nM; IC50 (Colo205 cells): 350 nM; IC50 (HCC-2998 cells): 310 nM; IC50 (HCT-116 cells): 210 nM; IC50 (HCT-15 cells): 270 nM; IC50 (HT29 cells): 300 nM; IC50 (KM12 cells): 220 nM; IC50 (SW-620 cells): 150 nM; IC50 (colon cancer cells): 260 nM
O=C1/C(=C/c2ccc(O)cc2)CN(C(=O)CCN2CCC(=NO)CC2)C/C1=C\c1ccc(O)cc1 [Compound 3i, (3~{E},5~{E})-3,5-bis[(4-hydroxyphenyl)methylene]-1-[3-(4-hydroximino-1-piperidyl)propanoyl]piperidin-4-one] | 16500 ± 2350 nM | 5.10 | 18000 ± 2060 nM | 4.68 | 19300 ± 1610 nM | 4.36 | 17900 nM | 4.71 | 64900 ± 5660 nM | 88300 ± 4560 nM | 99300 ± 1160 nM | 84200 nM | 11100 ± 1010 nM | 
C[N+]1(CCC(=O)N2C/C(=C\c3ccc([N+](=O)[O-])cc3)C(=O)/C(=C/c3ccc([N+](=O)[O-])cc3)C2)CCC(=NO)CC1 (stereo not shown) [Compound 4e, (3~{E},5~{E})-1-[3-(4-hydroximino-1-piperidyl)propanoyl]-3,5-bis[(4-nitrophenyl)methylene]piperidin-4-one methiodide] | 20 nM | 104 | 50 ± 10 nM | 41.4 | 60 ± 10 nM | 34.5 | 40 nM | 60.0 | 1150 ± 350 nM | 2590 ± 270 nM | 2460 ± 1230 nM | 2070 nM | 870 ± 20 nM | 
Cc1ccc(/C=C2\CN(C(=O)CC[N+]3(C)CCC(=NO)CC3)C/C(=C\c3ccc(C)cc3)C2=O)cc1 (stereo not shown) [Compound 4f, (3~{E},5~{E})-3,5-bis[(4-methylphenyl)methylene]-1-[3-(4-hydroximino-1-piperidyl)propanoyl]piperidin-4-one methiodide] | 180 ± 20 nM | 53.1 | 460 ± 100 nM | 20.8 | 400 ± 230 nM | 23.9 | 350 nM | 32.6 | 5120 ± 240 nM | 8370 ± 810 nM | 15200 ± 1900 nM | 9560 nM | 4180 ± 650 nM | 
COc1ccc(/C=C2\CN(C(=O)CC[N+]3(C)CCC(=NO)CC3)C/C(=C\c3ccc(OC)cc3)C2=O)cc1 (stereo not shown) [Compound 4g, (3~{E},5~{E})-3,5-bis[(4-methoxyphenyl)methylene]-1-[3-(4-hydroximino-1-piperidyl)propanoyl]piperidin-4-one methiodide] | 310 ± 170 nM | 41.0 | 680 ± 40 nM | 18.7 | 660 ± 50 nM | 19.2 | 550 nM | 26.3 | 6300 ± 270 nM | 16200 ± 4050 nM | 15600 ± 3160 nM | 12700 nM | 13000 ± 950 nM | 
COc1cc(/C=C2\CN(C(=O)CC[N+]3(C)CCC(=NO)CC3)C/C(=C\c3cc(OC)c(OC)c(OC)c3)C2=O)cc(OC)c1OC (stereo not shown) [Compound 4h, (3~{E},5~{E})-1-[3-(4-hydroximino-1-piperidyl)propanoyl]-3,5-bis[(3,4,5-trimethoxyphenyl)methylene]piperidin-4-one methiodide] | 70 ± 10 nM | 20.4 | 220 ± 40 nM | 6.50 | 180 ± 40 nM | 7.94 | 160 nM | 11.6 | 620 ± 60 nM | 1320 ± 40 nM | 2350 ± 820 nM | 1430 nM | 5120 ± 140 nM | 
COc1cccc2c1C(=O)c1c(O)c3c(c(O)c1C2=O)C[C@@](O)(C(=O)CO)C[C@@H]3O[C@H]1C[C@H](N)[C@H](O)[C@H](C)O1 [Doxorubicin, reference compound] | 470 ± 120 nM | 15.6 | 110 ± 10 nM | 66.5 | 150 ± 50 nM | 48.7 | 240 nM | 43.6 | 3440 ± 530 nM | 9730 ± 470 nM | 8770 ± 2140 nM | 7310 nM |  | 
